# Measurements: PMC3516535, “Rhesus Macaque Theta Defensins Suppress Inflammatory Cytokines and Enhance Survival in Mouse Models of Bacteremic Sepsis” (PLoS ONE, 2012)
# Bridge positions count the residues as written; N and C are the ends. Peptide text beside a SMILES is read from it.
# Columns and labels:
# [1] = test system: adult chimpanzees
# [2] = test system: human EDTA-anti-coagulated blood diluted 1∶10; assay: TNF release assay in stimulated diluted whole blood (ELISA); format: cell-based
structure (smiles),measurement,setting,value
"CC[C@H](C)[C@@H]1NC(=O)[C@@H]2CSSC[C@H](NC(=O)[C@H](CCCNC(=N)N)NC(=O)[C@@H]3CSSC[C@H](NC1=O)C(=O)N[C@@H]([C@@H](C)O)C(=O)N[C@@H](CCCNC(=N)N)C(=O)NCC(=O)N[C@@H](Cc1ccccc1)C(=O)N3)C(=O)N[C@@H](CC(C)C)C(=O)N[C@H]1CSSC[C@H](NC(=O)[C@H](C(C)C)NC(=O)CNC(=O)[C@H](CCCNC(=N)N)NC(=O)[C@H](CCCNC(=N)N)NC1=O)C(=O)N[C@@H](CCCNC(=N)N)C(=O)N2 [RTD-1] (cyclo(GFCRCLCRRGVCRCICTR); disulfide 3-16, 5-14, 7-12)",clinical and injection site effects,"[1]; escalating i.v. doses (0.2 to 3.0 mg/kg over 14 days), two animals",No clinical or injection site effects were observed
same,comprehensive metabolic panels and complete blood counts with differential,"[1]; escalating i.v. doses, all time points incl. days 21, 28, 60",no abnormalities
same,anti-RTD-1 antibody (dot blot immunoassay),"[1]; serum samples after escalating i.v. doses, two animals",No anti-RTD-1 antibody was detected
same,TNF-release inhibition,[2],70–80%
same,reduction of TNF levels,[2],46–93%
